Paper PMC10135272, “Synthesis, Molecular Docking Study, and Biological Evaluation of New 4-(2,5-Dimethyl-1H-pyrrol-1-yl)-N’-(2-(substituted)acetyl)benzohydrazides as Dual Enoyl ACP Reductase and DHFR Enzyme Inhibitors” (Antibiotics, 2023)
Converted amounts (≈) assume the structure as drawn. Where two headings read alike, the source gives them in different places.

Legend:
S. aureus (Gram +ve) = assay: Antibacterial activity, broth microdilution; type: cell-based; details: Staphylococcus aureus
E. coli (Gram −ve) = assay: Antibacterial activity, broth microdilution; type: cell-based; details: Escherichia coli
M. tuberculosis H37Rv = assay: Antitubercular activity, Microplate Alamar Blue assay (MABA); type: cell-based; details: Mycobacterium tuberculosis, average of triplicate tests
MtDHFR = MtDHFR (Mycobacterium tuberculosis, UniProt P9WNX1); assay: biochemical; type: biochemical; details: for MtDHFR inhibitory activity (in words): in vitro assay
[1] = molecular target: InhA (enoyl ACP reductase) (Mycobacterium tuberculosis, UniProt P9WGR1); assay: Enoyl ACP reductase (InhA) inhibition; type: biochemical; details: for enoyl ACP reductase inhibitory activity (in words): in vitro assay
MTT-based cytotoxicity [2] = type: cell-based; details: African green monkey; MTT assay, Mammalian Vero cell lines, means ± SEM of three independent experiments; read-out: IC50 MV Cell Lines (cytotoxicity)
Procedure: (§1) Cellular conversion of MTT (3-(4,5-dimethylthiazo-2-yl)-2,5-diphenyl-tetrazolium bromide) into a formazan product was performed to evaluate the cytotoxic activity (IC50) of some of the compounds against A549 (lung adenocarcinoma) MV cell lines up to a concentration of […] using a Promega Cell Titer 96 non-radioactive cell proliferation assay with cisplatin as the positive control. The IC50 values given in Table 6 are the averages ± SEM of three independent measurements.

MTT-based cytotoxicity [3] = type: cell-based, human; details: human; MTT assay, A549 lung adenocarcinoma, means ± SEM of three independent experiments
Procedure: as §1

[4] = test system: Mammalian Vero cell lines (MV cell lines); assay: MTT-based cytotoxicity; type: cell-based
Procedure: as §1

[5] = test system: A549 (lung adenocarcinoma) cell lines; assay: MTT-based cytotoxicity; type: cell-based, human
Procedure: as §1

Chain of MtDHFR (P9WNX1 whole entry): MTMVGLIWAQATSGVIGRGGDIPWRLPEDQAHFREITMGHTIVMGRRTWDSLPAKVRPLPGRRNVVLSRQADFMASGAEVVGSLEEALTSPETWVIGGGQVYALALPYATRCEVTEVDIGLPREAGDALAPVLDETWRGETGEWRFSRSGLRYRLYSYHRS
Chain of InhA (enoyl ACP reductase) (P9WGR1 whole entry, looked up): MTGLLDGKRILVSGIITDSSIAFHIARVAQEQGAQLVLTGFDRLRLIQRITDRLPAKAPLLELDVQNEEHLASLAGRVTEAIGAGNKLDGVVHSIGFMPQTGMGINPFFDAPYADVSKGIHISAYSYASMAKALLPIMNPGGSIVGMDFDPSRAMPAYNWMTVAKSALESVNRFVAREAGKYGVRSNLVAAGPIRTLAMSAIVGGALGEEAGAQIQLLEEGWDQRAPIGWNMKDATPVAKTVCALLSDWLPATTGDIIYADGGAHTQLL

Row | Compound | MIC (S. aureus (Gram +ve)) | MIC (E. coli (Gram −ve)) | MIC (M. tuberculosis H37Rv) | IC50 (MtDHFR) | inhibition at 50 µM [1] | IC50 (MTT-based cytotoxicity [2]) | IC50 (MTT-based cytotoxicity [3]) | MtDHFR inhibitory activity (in words) (MtDHFR) | enoyl ACP reductase inhibitory activity (in words) [1] | IC50 [4] | IC50 [5]
1 | O=C(O)c1cn(C2CC2)c2cc(N3CCNCC3)c(F)cc2c1=O [Ciprofloxacin, reference compound] | 2 µg/mL (≈ 6.04 µM) | 2 µg/mL (≈ 6.04 µM) |  |  |  |  |  |  |  |  | 
2 | Cc1ccc(C)n1-c1ccc(C(=O)NNC(=O)Cc2ccccc2)cc1 [Compound 5a, 4-(2,5-Dimethyl-1H-pyrrol-1-yl)-N′-(2-phenylacetyl)benzohydrazide] | 50 µg/mL (≈ 144 µM) | 50 µg/mL (≈ 144 µM) | 25 µg/mL (≈ 72 µM) | 146 µM |  |  |  |  |  |  | 
3 | Cc1ccccc1CC(=O)NNC(=O)c1ccc(-n2c(C)ccc2C)cc1 [Compound 5b, 4-(2,5-Dimethyl-1H-pyrrol-1-yl)-N′-(2-(o-tolyl)acetyl)benzohydrazide] | 0.8 µg/mL (≈ 2.21 µM) | 50 µg/mL (≈ 138 µM) | 25 µg/mL (≈ 69.2 µM) | 125 µM |  |  |  |  |  |  | 
4 | Cc1ccc(CC(=O)NNC(=O)c2ccc(-n3c(C)ccc3C)cc2)cc1 [Compound 5c, 4-(2,5-Dimethyl-1H-pyrrol-1-yl)-N′-(2-(p-tolyl)acetyl)benzohydrazide] | 3.12 µg/mL (≈ 8.63 µM) | 50 µg/mL (≈ 138 µM) | 25 µg/mL (≈ 69.2 µM) | 118 µM | 20% | 221 ± 0.8 µM | 219 ± 0.7 µM |  |  |  | 
5 | COc1ccc(CC(=O)NNC(=O)c2ccc(-n3c(C)ccc3C)cc2)cc1 [Compound 5d, 4-(2,5-Dimethyl-1H-pyrrol-1-yl)-N′-(2-(4-methoxyphenyl)acetyl)benzohydrazide] | 3.12 µg/mL (≈ 8.27 µM) | 100 µg/mL (≈ 265 µM) | 3.25 µg/mL (≈ 8.61 µM) | 85 µM | 32% | 214 ± 0.6 µM | 214 ± 0.2 µM |  |  |  | 
6 | COc1ccccc1CC(=O)NNC(=O)c1ccc(-n2c(C)ccc2C)cc1 [Compound 5e, 4-(2,5-Dimethyl-1H-pyrrol-1-yl)-N′-(2-(2-methoxyphenyl)acetyl)benzohydrazide] | 6.25 µg/mL (≈ 16.6 µM) | 100 µg/mL (≈ 265 µM) | 6.25 µg/mL (≈ 16.6 µM) | 78 µM |  |  |  |  |  |  | 
7 | Cc1ccc(C)n1-c1ccc(C(=O)NNC(=O)Cc2ccc(Cl)cc2)cc1 [Compound 5f, N′-(2-(4-Chlorophenyl)acetyl)-4-(2,5-dimethyl-1H-pyrrol-1-yl)benzohydrazide] | 1.6 µg/mL (≈ 4.19 µM) | 50 µg/mL (≈ 131 µM) | 1.6 µg/mL (≈ 4.19 µM) | 25 µM | 76% | 215 ± 0.2 µM | 216 ± 0.5 µM | promising enzyme inhibitory activity | promising enzyme inhibitory activity |  | 
8 | Cc1ccc(C)n1-c1ccc(C(=O)NNC(=O)Cc2ccccc2Cl)cc1 [Compound 5g, N′-(2-(2-Chlorophenyl)acetyl)-4-(2,5-dimethyl-1H-pyrrol-1-yl)benzohydrazide] | 3.12 µg/mL (≈ 8.17 µM) | 50 µg/mL (≈ 131 µM) | 3.25 µg/mL (≈ 8.51 µM) | 26 µM |  |  |  |  |  |  | 
9 | Cc1ccc(C)n1-c1ccc(C(=O)NNC(=O)Cc2cccc(Cl)c2)cc1 [Compound 5h, N′-(2-(3-Chlorophenyl)acetyl)-4-(2,5-dimethyl-1H-pyrrol-1-yl)benzohydrazide] | 6.25 µg/mL (≈ 16.4 µM) | 50 µg/mL (≈ 131 µM) | 3.25 µg/mL (≈ 8.51 µM) | 30 µM |  |  |  |  |  |  | 
10 | Cc1ccc(C)n1-c1ccc(C(=O)NNC(=O)Cc2ccc(Br)cc2)cc1 [Compound 5i, N′-(2-(4-Bromophenyl)acetyl)-4-(2,5-dimethyl-1H-pyrrol-1-yl)benzohydrazide] | 6.25 µg/mL (≈ 14.7 µM) | 50 µg/mL (≈ 117 µM) | 1.6 µg/mL (≈ 3.75 µM) | 18 µM | 72% | 218 ± 0.3 µM | 214 ± 0.4 µM | promising enzyme inhibitory activity | promising enzyme inhibitory activity |  | 
11 | Cc1ccc(C)n1-c1ccc(C(=O)NNC(=O)Cc2ccccc2Br)cc1 [Compound 5j, N′-(2-(2-Bromophenyl)acetyl)-4-(2,5-dimethyl-1H-pyrrol-1-yl)benzohydrazide] | 6.25 µg/mL (≈ 14.7 µM) | 50 µg/mL (≈ 117 µM) | 1.6 µg/mL (≈ 3.75 µM) | 15 µM |  |  |  |  |  |  | 
12 | Cc1ccc(C)n1-c1ccc(C(=O)NNC(=O)Cc2ccc(F)cc2)cc1 [Compound 5k, 4-(2,5-Dimethyl-1H-pyrrol-1-yl)-N′-(2-(4-flurophenyl)acetyl)benzohydrazide] | 1.6 µg/mL (≈ 4.38 µM) | 50 µg/mL (≈ 137 µM) | 0.8 µg/mL (≈ 2.19 µM) | 10 µM | 88% | 221 ± 0.3 µM | 219 ± 0.4 µM | promising enzyme inhibitory activity | promising enzyme inhibitory activity |  | 
13 | Cc1ccc(C)n1-c1ccc(C(=O)NNC(=O)Cc2ccc(O)cc2)cc1 [Compound 5l, 4-(2,5-Dimethyl-1H-pyrrol-1-yl)-N′-(2-(4-hydroxyphenyl)acetyl)benzohydrazide] | 6.25 µg/mL (≈ 17.2 µM) | 50 µg/mL (≈ 138 µM) | 3.25 µg/mL (≈ 8.94 µM) | 30 µM |  |  |  |  |  |  | 
14 | Cc1ccc(C)n1-c1ccc(C(=O)NNC(=O)Cc2cccc(Br)c2)cc1 [Compound 5m, 4-(2,5-Dimethyl-1H-pyrrol-1-yl)-N′-(2-(3-bromophenyl)acetyl)benzohydrazide] | 12.5 µg/mL (≈ 29.3 µM) | 50 µg/mL (≈ 117 µM) | 3.25 µg/mL (≈ 7.62 µM) | 18 µM |  |  |  |  |  |  | 
15 | Cc1ccc(C)n1-c1ccc(C(=O)NNC(=O)Cc2ccc([N+](=O)[O-])cc2)cc1 [Compound 5n, 4-(2,5-Dimethyl-1H-pyrrol-1-yl)-N′-(2-(4-nitrophenyl)acetyl)benzohydrazide] | 12.5 µg/mL (≈ 31.9 µM) | 50 µg/mL (≈ 127 µM) | 1.6 µg/mL (≈ 4.08 µM) | 15 µM |  |  |  |  |  |  | 
16 | NNC(=O)c1ccncc1 [INH, reference compound] |  |  |  |  |  |  |  |  |  | > 450 µM | > 450 µM
17 | NC(=O)c1cnccn1 [Pyrazinamide, reference compound] |  |  | 3.12 µg/mL (≈ 25.4 µM) |  |  |  |  |  |  |  | 
18 | [H]/N=C(/N)N[C@H]1[C@H](O)[C@@H](O)[C@H](O[C@@H]2O[C@@H](C)[C@](O)(C=O)[C@H]2O[C@@H]2O[C@@H](CO)[C@H](O)[C@@H](O)[C@@H]2NC)[C@@H](N/C(N)=N\[H])[C@@H]1O [Streptomycin, reference compound] |  |  | 6.25 µg/mL (≈ 10.7 µM) |  |  |  |  |  |  |  | 
